Measured values reported in the supplement of paper PMC10307832.

How the values were obtained:
Assay in all cases: relative viability (nuclei count vs DMSO), 5 days (fraction); higher = more cells survive
[1] = compound: O=C(C[C@H]1NCCC[C@@H]1O)Cn1cnc2cc(Br)c(Cl)cc2c1=O (racemic) [Halofuginone] + NC(=O)Nc1cc(-c2cccc(F)c2)sc1C(=O)N[C@H]1CCCNC1 [AZD7762] (partner 0.2 µM)
Procedure, shortened: (§1)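 Lung cancer cell lines were seeded in 1536-well plates and dosed by pin tool the next day, with either a single drug or a fixed anchor-drug dose combined with five library-drug doses (not always all listed) spaced in √10 steps. Five days later, one step fixed the cells and stained their nuclei (final 0.05% Triton X-100, 1% formaldehyde, 1 ug/ml Hoechst), and nuclei were counted on 4× images. Relative viability is the nuclei count in treated wells divided by the count in vehicle wells, and each value is the median of duplicate plates.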

[2] = compound: Nc1ncn([C@H]2C[C@H](O)[C@@H](CO)O2)c(=O)n1 [Decitabine] + CC(=O)c1c(C)c2cnc(Nc3ccc(N4CCNCC4)cn3)nc2n(C2CCCC2)c1=O [Palbociclib] (partner 0.5 µM)
Procedure, shortened: as §1

[3] = compound: Nc1ncn([C@H]2C[C@H](O)[C@@H](CO)O2)c(=O)n1 [Decitabine] + O=C(CCCCCCC(=O)Nc1ccccc1)NO [Vorinostat] (partner 1 µM)
Procedure, shortened: as §1

[4] = compound: COc1cc2c(Oc3ccc4[nH]c(C)cc4c3F)ncnc2cc1OCCCN1CCCC1 [Cediranib] + Cc1nc(NC(=O)N2CCC[C@H]2C(N)=O)sc1-c1ccnc(C(C)(C)C(F)(F)F)c1 [Alpelisib] (partner 2 µM)
Procedure, shortened: as §1

Row | Cell Line | relative viability ([1]; first compound 0.001 µM) | relative viability ([1]; first compound 0.003162 µM) | relative viability ([1]; first compound 0.01 µM) | relative viability ([1]; first compound 0.03162 µM) | relative viability ([1]; first compound 0.1 µM) | relative viability ([2]; first compound 0.04 µM) | relative viability ([2]; first compound 0.1265 µM) | relative viability ([2]; first compound 0.4 µM) | relative viability ([2]; first compound 1.265 µM) | relative viability ([2]; first compound 4 µM) | relative viability ([3]; first compound 0.04 µM) | relative viability ([3]; first compound 0.1265 µM) | relative viability ([3]; first compound 0.4 µM) | relative viability ([3]; first compound 1.265 µM) | relative viability ([3]; first compound 4 µM) | relative viability ([4]; first compound 0.04 µM) | relative viability ([4]; first compound 0.1265 µM) | relative viability ([4]; first compound 0.4 µM) | relative viability ([4]; first compound 1.265 µM) | relative viability ([4]; first compound 4 µM)
1 | EKVX | 0.721 | 0.615 | 0.692 | 0.784 | 0.496 | 0.3 | 0.372 | 0.405 | 0.259 | 0.235 | 0.455 | 0.506 | 0.507 | 0.432 | 0.335 | 0.961 | 1.2 | 0.849 | 0.879 | 0.836
2 | EMC-BAC-2 | 1.17 | 1.2 | 1.06 | 1.12 | 0.842 |  | 0.519 | 0.523 | 0.467 | 0.457 |  | 0.456 | 0.538 | 0.414 | 0.43 | 0.788 | 0.796 | 0.707 | 0.728 | 0.801
3 | EPLC-272H | 0.208 | 0.0783 | 0.216 | 0.215 | 0.19 | 0.353 | 0.316 |  | 0.326 | 0.272 | 0.369 | 0.281 |  | 0.221 | 0.215 | 1.06 |  | 0.962 | 0.97 | 1
4 | H3255 | 1.05 | 0.777 | 0.871 | 0.844 | 0.876 | 0.333 | 0.343 | 0.3 | 0.302 | 0.307 |  | 0.846 | 0.638 | 0.487 | 0.76 | 0.785 | 0.754 | 0.691 | 0.622 | 0.61
5 | HARA | 0.279 | 0.506 | 0.391 | 0.305 | 0.304 | 0.238 | 0.244 | 0.253 | 0.223 | 0.207 | 0.507 | 0.377 | 0.345 | 0.213 | 0.214 | 0.844 | 1.14 | 0.837 | 0.857 | 1.01
6 | HCC-15 | 1.19 | 1.26 | 1 | 1.18 | 1.2 | 0.776 | 0.591 | 0.412 | 0.38 | 0.441 | 0.776 | 0.678 | 0.543 | 0.418 | 0.35 | 0.961 |  | 0.827 | 0.933 | 0.961
7 | HCC-44 | 1.06 | 1.01 | 1.02 | 1.03 | 1.05 | 1.01 | 0.935 | 0.808 | 0.761 | 0.873 | 1.06 | 0.982 | 0.839 | 0.904 | 0.785 | 0.754 |  | 0.731 | 0.784 | 0.898
8 | HCC-78 | 0.657 | 0.672 | 0.55 | 0.652 | 0.643 | 0.483 | 0.554 | 0.487 | 0.436 | 0.423 | 0.54 | 0.476 | 0.477 | 0.448 | 0.346 | 0.361 | 0.379 | 0.323 | 0.386 | 0.287
9 | HCC-366 | 0.282 | 0.321 | 0.323 | 0.336 | 0.317 | 0.306 | 0.244 | 0.175 | 0.0803 | 0.0669 | 0.235 | 0.313 | 0.138 | 0.0554 | 0.0657 | 0.402 | 0.316 | 0.363 | 0.401 | 0.388
